Laboratory results taken from ChEMBL document CHEMBL3352461, “Discovery and optimization of 5-fluoro-4,6-dialkoxypyrimidine GPR119 agonists” (Bioorg Med Chem Lett, 2014).
Blank lines part the entries; values can stand above or below the compound they belong to. Active and inactive are the calls of the source. The calls are words filed in the database; no cut-off is given here.

Legend:
[1] = test system: Rattus norvegicus; assay: Reduction in plasma glucose level in Zucker diabetic fatty rat at 3 mg/kg, po administered 30 mins prior to challenge measured in 20 mins interval for 120 mins by oral glucose tolerance test relative to vehicle-treated control; type: functional; set-up: scale not given: the % may be the effect or the level left
[2] = test system: Mus musculus; assay: Increase in GIP release in normoglycemic 129SVE mouse at 3 to 10 mg/kg, po measured after 45 mins; type: functional, organism-based
[3] = Stability in rat hepatocytes assessed as compound remaining after 90 mins; type: ADME, cell-based, Hepatocyte; settings: read-out: Stability
[4] = Elimination half life in Sprague-Dawley rat at 2 mg/kg, po; type: ADME, organism-based; set-up: dose 2 mg/kg, route oral; settings: in vivo, read-out: beta t1/2 (converted)
[5] = biological target: Cytochrome P450 2C19 (Homo sapiens, UniProt P33261); assay: Inhibition of CYP2C19 (unknown origin); type: ADME
[6] = test system: Rattus norvegicus; assay: Reduction in plasma glucose level in Zucker diabetic fatty rat at 10 to 30 mg/kg, po administered 30 mins prior to challenge measured in 20 mins interval for 120 mins by oral glucose tolerance test relative to vehicle-treated control; type: functional; set-up: scale not given: the % may be the effect or the level left; settings: dose mg/kg 10-30
[7] = test system: Rattus norvegicus; assay: Bioavailability in Sprague-Dawley rat at 2 mg/kg, iv and po; type: ADME, organism-based; settings: in vivo
[8] = biological target: Cytochrome P450 3A4 (Homo sapiens, UniProt P08684); assay: Inhibition of CYP3A4 (unknown origin); type: ADME
[9] = biological target: Cytochrome P450 2C9 (Homo sapiens, UniProt P11712); assay: Inhibition of CYP2C9 (unknown origin); type: ADME
[10] = biological target: T1, Glucose-dependent insulinotropic receptor (Homo sapiens, UniProt Q8TDV5); assay: […] of human GPR119 activity by homogeneous time resolved fluorescence cyclase (cAMP) assay; type: functional
T1 sequence (Q8TDV5 whole entry): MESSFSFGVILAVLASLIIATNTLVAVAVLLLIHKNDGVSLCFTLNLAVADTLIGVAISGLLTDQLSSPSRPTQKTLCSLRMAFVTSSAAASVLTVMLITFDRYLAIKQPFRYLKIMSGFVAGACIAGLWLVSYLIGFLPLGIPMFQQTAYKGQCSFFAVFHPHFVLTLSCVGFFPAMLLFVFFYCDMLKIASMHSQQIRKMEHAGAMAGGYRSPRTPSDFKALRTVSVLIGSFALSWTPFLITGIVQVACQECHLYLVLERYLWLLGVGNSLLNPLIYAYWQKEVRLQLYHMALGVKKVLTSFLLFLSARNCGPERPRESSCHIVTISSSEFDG

[11] = test system: Rattus norvegicus; assay: Reduction in plasma glucose level in Zucker diabetic fatty rat at 10 to 30 mg/kg, po administered 30 mins prior to challenge measured in 20 mins interval for 120 mins by oral glucose tolerance test relative to vehicle-treated control in presence of sitagliptin; type: functional; set-up: scale not given: the % may be the effect or the level left; settings: dose mg/kg 10-30
[12] = Stability in human hepatocytes assessed as compound remaining after 90 mins; type: ADME, cell-based, Hepatocyte; settings: read-out: Stability
[13] = Stability in dog hepatocytes assessed as compound remaining after 90 mins; type: ADME, cell-based, Canis lupus familiaris, Hepatocyte; settings: read-out: Stability
[14] = biological target: T2, Glucose-dependent insulinotropic receptor (Rattus norvegicus, UniProt Q7TQN8); assay: […] of rat GPR119 activity by homogeneous time resolved fluorescence cyclase (cAMP) assay; type: functional
T2 sequence (Q7TQN8 whole entry): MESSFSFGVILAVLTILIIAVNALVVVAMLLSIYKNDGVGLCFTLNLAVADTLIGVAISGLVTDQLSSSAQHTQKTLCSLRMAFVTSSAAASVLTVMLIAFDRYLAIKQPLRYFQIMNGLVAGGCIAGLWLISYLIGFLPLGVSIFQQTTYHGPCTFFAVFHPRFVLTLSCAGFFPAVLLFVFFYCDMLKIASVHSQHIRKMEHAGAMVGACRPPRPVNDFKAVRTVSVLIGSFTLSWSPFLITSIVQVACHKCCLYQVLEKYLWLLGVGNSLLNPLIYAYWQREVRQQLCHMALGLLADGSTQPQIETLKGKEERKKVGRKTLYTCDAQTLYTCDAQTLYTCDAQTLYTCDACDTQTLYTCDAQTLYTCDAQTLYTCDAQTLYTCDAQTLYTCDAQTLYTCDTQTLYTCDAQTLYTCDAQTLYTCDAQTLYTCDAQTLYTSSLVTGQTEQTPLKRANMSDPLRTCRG

[15] = biological target: T3, Cytochrome P450 1A2 (Homo sapiens, UniProt P05177); assay: Inhibition of CYP1A2 (unknown origin); type: ADME
T3 sequence (P05177 whole entry): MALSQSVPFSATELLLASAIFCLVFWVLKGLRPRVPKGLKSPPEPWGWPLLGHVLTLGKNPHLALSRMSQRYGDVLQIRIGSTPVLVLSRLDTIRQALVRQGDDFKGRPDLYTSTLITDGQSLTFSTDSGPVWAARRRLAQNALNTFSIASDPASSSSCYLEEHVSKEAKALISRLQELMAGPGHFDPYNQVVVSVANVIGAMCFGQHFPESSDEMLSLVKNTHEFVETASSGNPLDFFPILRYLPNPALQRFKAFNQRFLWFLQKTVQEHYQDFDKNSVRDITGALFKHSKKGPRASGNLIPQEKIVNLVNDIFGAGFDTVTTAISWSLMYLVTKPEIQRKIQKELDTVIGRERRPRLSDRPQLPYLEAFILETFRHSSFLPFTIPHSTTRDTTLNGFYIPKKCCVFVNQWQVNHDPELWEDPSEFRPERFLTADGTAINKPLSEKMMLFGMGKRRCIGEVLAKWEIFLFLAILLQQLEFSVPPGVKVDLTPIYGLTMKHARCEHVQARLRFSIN

[16] = test system: Rattus norvegicus; assay: Volume of distribution at steady state in Sprague-Dawley rat at 2 mg/kg, iv and po; type: ADME, organism-based; set-up: dose 2 mg/kg, route oral; settings: in vivo
[17] = Efflux ratio of permeability in human Caco2 cells; type: ADME, cell-based; settings: Caco-2
[18] = biological target: T4, Glucose-dependent insulinotropic receptor (Homo sapiens) (UniProt Q8TDV5); assay: […] of human GPR119 activity by homogeneous time resolved fluorescence cyclase (cAMP) assay relative to AR231453; type: functional
T4 sequence (whole entry): T1 sequence (Q8TDV5 whole entry)

[19] = Stability in monkey hepatocytes assessed as compound remaining after 90 mins; type: ADME, cell-based, Macaca mulatta, Hepatocyte; settings: rhesus monkey, read-out: Stability
[20] = biological target: Cytochrome P450 2D6 (Homo sapiens, UniProt P10635); assay: Inhibition of CYP2D6 (unknown origin); type: ADME
[21] = test system: Mus musculus; assay: Reduction in plasma glucose level in normoglycemic 129SVE mouse at 3 to 10 mg/kg, po administered 30 mins prior to challenge measured in 20 mins interval for 120 mins by oral glucose tolerance test relative to vehicle-treated control; type: functional; set-up: scale not given: the % may be the effect or the level left; settings: dose mg/kg 3-10
[22] = biological target: CYP2C9 (Homo sapiens, UniProt P11712); assay: Ratio of APD597 IC50 to compound IC50 for CYP2C9 (unknown origin); type: ADME; settings: read-out: Ratio IC50
[23] = test system: Rattus norvegicus; assay: Clearance in Sprague-Dawley rat at 2 mg/kg, iv and po; type: ADME, organism-based; set-up: dose 2 mg/kg, route oral; settings: in vivo
[24] = biological target: T5, Glucose-dependent insulinotropic receptor (Rattus norvegicus) (UniProt Q7TQN8); assay: […] of rat GPR119 activity by homogeneous time resolved fluorescence cyclase (cAMP) assay relative to AR231453; type: functional
T5 sequence (whole entry): T2 sequence (Q7TQN8 whole entry)

[25] = test system: Rattus norvegicus; assay: AUClast in Sprague-Dawley rat at 2 mg/kg, iv and po; type: ADME, organism-based, Plasma; set-up: dose 2 mg/kg, route oral; settings: in vivo

Chain of Cytochrome P450 2C19 (P33261 whole entry): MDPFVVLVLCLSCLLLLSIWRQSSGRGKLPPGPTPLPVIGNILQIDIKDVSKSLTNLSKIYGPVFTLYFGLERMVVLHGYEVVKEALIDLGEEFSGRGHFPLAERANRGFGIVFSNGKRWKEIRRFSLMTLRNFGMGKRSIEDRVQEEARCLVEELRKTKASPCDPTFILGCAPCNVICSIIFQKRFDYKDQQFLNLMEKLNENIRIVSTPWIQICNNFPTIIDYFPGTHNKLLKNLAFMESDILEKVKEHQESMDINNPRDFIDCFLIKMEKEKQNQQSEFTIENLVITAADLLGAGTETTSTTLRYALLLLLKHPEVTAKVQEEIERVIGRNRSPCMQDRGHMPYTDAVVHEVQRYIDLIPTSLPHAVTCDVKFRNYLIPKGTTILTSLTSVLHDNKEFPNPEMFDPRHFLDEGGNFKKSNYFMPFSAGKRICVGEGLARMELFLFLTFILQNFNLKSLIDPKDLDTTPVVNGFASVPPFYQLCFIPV
Chain of Cytochrome P450 2C9 (P11712 whole entry): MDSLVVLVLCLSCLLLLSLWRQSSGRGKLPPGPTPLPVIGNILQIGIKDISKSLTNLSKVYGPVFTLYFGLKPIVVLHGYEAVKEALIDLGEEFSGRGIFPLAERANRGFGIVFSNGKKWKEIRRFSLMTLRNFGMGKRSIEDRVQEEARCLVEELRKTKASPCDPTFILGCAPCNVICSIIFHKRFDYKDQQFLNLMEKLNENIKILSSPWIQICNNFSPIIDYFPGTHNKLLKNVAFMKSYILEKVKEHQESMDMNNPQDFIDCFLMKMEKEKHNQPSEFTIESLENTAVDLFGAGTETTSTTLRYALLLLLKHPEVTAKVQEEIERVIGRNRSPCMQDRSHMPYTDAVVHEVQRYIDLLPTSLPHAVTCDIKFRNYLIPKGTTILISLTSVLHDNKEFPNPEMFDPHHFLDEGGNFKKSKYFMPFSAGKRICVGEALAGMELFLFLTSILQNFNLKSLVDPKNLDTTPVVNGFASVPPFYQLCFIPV
Chain of CYP2C9 (P11712 whole entry): as above
Chain of Cytochrome P450 3A4 (P08684 whole entry): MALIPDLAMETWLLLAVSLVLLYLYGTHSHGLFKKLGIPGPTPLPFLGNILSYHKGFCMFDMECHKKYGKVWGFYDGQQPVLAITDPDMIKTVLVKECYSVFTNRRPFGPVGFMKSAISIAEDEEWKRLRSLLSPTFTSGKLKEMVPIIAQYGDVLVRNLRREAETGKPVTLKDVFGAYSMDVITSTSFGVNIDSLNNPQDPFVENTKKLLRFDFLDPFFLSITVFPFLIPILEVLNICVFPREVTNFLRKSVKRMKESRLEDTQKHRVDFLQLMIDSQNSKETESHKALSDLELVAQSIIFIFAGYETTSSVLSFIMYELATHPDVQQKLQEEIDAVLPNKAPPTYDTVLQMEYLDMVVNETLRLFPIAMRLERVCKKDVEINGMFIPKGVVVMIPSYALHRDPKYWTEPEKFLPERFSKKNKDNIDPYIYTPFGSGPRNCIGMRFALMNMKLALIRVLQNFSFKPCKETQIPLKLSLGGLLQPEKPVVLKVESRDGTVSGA
Chain of Cytochrome P450 2D6 (P10635 whole entry): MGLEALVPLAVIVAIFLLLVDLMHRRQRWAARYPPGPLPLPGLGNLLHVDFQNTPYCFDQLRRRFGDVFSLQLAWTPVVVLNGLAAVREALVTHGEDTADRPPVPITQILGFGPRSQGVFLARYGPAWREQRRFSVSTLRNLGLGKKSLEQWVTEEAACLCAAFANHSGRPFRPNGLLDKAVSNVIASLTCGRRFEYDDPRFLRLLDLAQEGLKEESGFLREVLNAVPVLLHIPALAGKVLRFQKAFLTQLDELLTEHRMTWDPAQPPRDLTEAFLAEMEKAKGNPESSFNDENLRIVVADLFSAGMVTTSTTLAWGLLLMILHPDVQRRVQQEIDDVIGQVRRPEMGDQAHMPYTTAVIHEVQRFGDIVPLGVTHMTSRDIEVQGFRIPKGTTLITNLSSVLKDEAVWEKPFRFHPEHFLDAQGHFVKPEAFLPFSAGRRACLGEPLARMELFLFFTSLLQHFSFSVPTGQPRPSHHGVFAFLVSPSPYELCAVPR

SMILES: N[C@@H](CC(=O)N1CCn2c(nnc2C(F)(F)F)C1)Cc1cc(F)c(F)cc1F [SITAGLIPTIN]
Activity [1]: 70%

remaining at 1.5 h [3]: 51% | half-life [4]: 2.71 h | IC50 [5]: 23.4 µM | F [7]: 72.7% | inhibition (INH) [8]: Not Active | IC50 [9]: 25.7 µM | EC50 [10]: 0.0138 µM | remaining at 1.5 h [12]: 100% | remaining at 1.5 h [13]: 89% | EC50 [14]: 0.169 µM | inhibition (INH) [15]: Not Active | Vdss [16]: 2.91 L/kg | efflux ratio [17]: 1 | Efficacy [18]: 94% | remaining at 1.5 h [19]: 50% | inhibition (INH) [20]: Not Active | CL [23]: 19.8 mL/min/kg | Efficacy [24]: 93% | AUClast [25]: 1220 ng·h/mL
SMILES: Cc1nc(S(C)(=O)=O)ccc1Oc1ncnc(OC2CCN(C(=O)OC3(C)CC3)CC2)c1F
Activity [2]: Active | Activity [6]: 50% | Activity [11]: 70% | Activity [21]: 35% | selectivity ratio [22]: 4
